Values of other authors in patent publication US20040204492A1, “Topical composition and method for treating seborrheic dermatitis” (Healthpoint, Ltd., priority 2003, published 2004).

System: sulfonamide sensitive gram-positive and gram-negative microorganisms
Details: microorganisms commonly isolated from secondary cutaneous infections

## CC(=O)NS(=O)(=O)c1ccc(N)cc1.O.[Na] [Sulfacetamide sodium, Acetamide N-[(4-aminophenyl)sulfonyl]-, monosodium salt, monohydrate]
  bacteriostatic effect: exerts a bacteriostatic effect
